Measured values taken from patent publication US4536510A, “Method of antagonizing the effects of thromboxane” (Smith Kline Beckman Corporation, priority 1983, dated 1985).
Where two headings read alike, the source gives them in different places. One block for each compound: values may come before it.

Tests used:
[1] = test system: isolated guinea pig lung parenchymal strips; assay: Antagonism of contractions elicited by carbocyclic thromboxane A2 (CTA2), lung parenchymal strips; details: for contractile response (mg tension): lung parenchyma, Compound I 1×10^-5 M, 30 min
Protocol: (§1) Isolated guinea pig tracheas or paired lung parenchymal strips were attached via silk suture to force displacement transducers for recording changes in isometric tension. The tissues were equilibrated for one hour in modified Krebs' buffer at 37.5° C. and aerated with 95% O2 /5% CO2. Then, the tissues were equilibrated for 30 additional minutes with N,N'-bis[7-(3-chlorobenzeneaminosulfonyl)-1,2,3,4-tetrahydroisoquinolyl]disulfonylimide (Compound I) (1×10^-5 M) or buffer. Contraction of the tissues was then elicited by increasing the bath concentration of CTA2 in a cumulative fashion. The contractile responses were recorded as changes in mg tension.

[2] = test system: isolated guinea pig tracheas; assay: Antagonism of contractions elicited by carbocyclic thromboxane A2 (CTA2), trachea; details: for contractile response (mg tension): trachea, Compound I 1×10^-5 M, 30 min
Protocol: as §1

[3] = test system: canine bronchoconstriction induced by U-44069; assay: Protection in a drug-induced (U-44069) canine bronchospasm; type: in vivo, mongrel dogs; details: for Decrease in ability of lungs to expand easily / Increase in resistance to movement of air into the lungs: anesthetized dogs
Protocol: Bronchopulmonary responses to these agents were measured by computer analyses in 5 spontaneously breathing, anesthetized mongrel dogs. In a dose range of 0.3-3.0 μg/kg i.v., the endoperoxide analog produced dose-related alterations in pulmonary airway resistance, dynamic lung compliance, expiratory airflow rate, tidal volume and respiratory frequency. […] Inhibition by Compound I occurred in all pulmonary parameters calculated.

[4] = test system: human platelet aggregation; assay: Inhibition of human platelet aggregation in platelet-rich plasma; type: cell-based
Protocol: Platelet-rich plasma (PRP) and platelet-poor plasma (PPP) are prepared from citrated blood of drug-free human volunteers and are stored at room temperature for at least 30 minutes before use. Each PRP sample is preincubated two minutes at 37° C. prior to addition of N,N-bis[7-(3-chlorobenzeneaminosulfonyl)-1,2,3,4-tetrahydroisoquinolyl]disulfonylimide (Compound I) or agonists; Compound I is preincubated for 1 minute prior to addition of agonist. A dose response is determined for each agonist, and a concentration which gives a biphasic response is selected. Compounds are tested for inhibition of the response (control response) generated by this agonist concentration. A time is selected, and the height at which the various curves intersect this time line is measured and expressed in mm (a measure of light transmittance). The difference between the response of the control and that with inhibitor present is used to calculate percent inhibition. This value is plotted against inhibitor concentrations to determine the IC50 (the inhibitory concentration of Compound I which inhibits aggregation by 50%).

[5] = pretreat with Compound I 5 mg/kg i.v., then U-44069 0.3 μg/kg i.v.
[6] = pretreat with Compound I 5 mg/kg i.v., then U-44069 1.0 μg/kg i.v.
[7] = pretreat with Compound I 5 mg/kg i.v., then U-44069 3.0 μg/kg i.v.

- IC50 ([4]; agonist A23187, human PRP, read-out: IC50, inhibition of secondary phase): 12 µM
- IC50 ([4]; agonist Platelet Activating Factor (PAF), human PRP, read-out: IC50, inhibition of secondary phase): 4.5 µM
- IC50 ([4]; agonist U-44069, human PRP, read-out: IC50, inhibition of primary phase): 2.5 µM
- IC50 ([4]; agonist U-44069, human PRP, read-out: IC50, inhibition of secondary phase): 1.7 µM
- IC50 ([4]; agonist arachidonic acid, human PRP, read-out: IC50, inhibition of primary phase): 19 µM
- IC50 ([4]; agonist collagen, human PRP, read-out: IC50, inhibition of primary phase): 10 µM
SMILES: O=S(=O)(Nc1cccc(Cl)c1)c1ccc2c(c1)CN(S(=O)(=O)NS(=O)(=O)N1CCc3ccc(S(=O)(=O)Nc4cccc(Cl)c4)cc3C1)CC2 [Compound I, N,N'-bis[7-(3-chlorobenzeneaminosulfonyl)-1,2,3,4-tetrahydroisoquinolyl]disulfonylimide]
- response to challenge with reference contractile agonist ([1]; lung parenchyma receiving Compound I, 1 × 10^-3 M histamine): responded normally
- contractile response (mg tension) ([1]; CTA2 10^-6 M, control 181.5 ± 23.3): 0 mg tension
- contractile response (mg tension) ([1]; CTA2 10^-7 M, control 103.5 ± 23.7): 0 mg tension
- contractile response (mg tension) ([1]; CTA2 10^-8 M, control 45.5 ± 11.4): 0 mg tension
- response to challenge with reference contractile agonist ([2]; trachea receiving Compound I, 1 × 10^-5 M carbachol): responded normally
- contractile response (mg tension) ([2]; CTA2 10^-6 M, control 360.0 ± 89.8): 42.9 ± 20.2 mg tension
- contractile response (mg tension) ([2]; CTA2 10^-7 M, control 125.0 ± 33.5): 0 mg tension
- contractile response (mg tension) ([2]; CTA2 10^-8 M, control 0): 0 mg tension
- Decrease in ability of lungs to expand easily [3, 5]: 5%
- Increase in resistance to movement of air into the lungs [3, 5]: 14%
- Decrease in ability of lungs to expand easily [3, 6]: 13%
- Increase in resistance to movement of air into the lungs [3, 6]: 30%
- Decrease in ability of lungs to expand easily [3, 7]: 28%
- Increase in resistance to movement of air into the lungs [3, 7]: 56%
- effect on U-44069-induced bronchospasm (all pulmonary parameters) ([3]; pretreatment with Compound I 5.0 mg/kg i.v., shift to the right of the control U-44069 curve): inhibition of the bronchospasm

SMILES: CCCCC[C@H](O)/C=C/[C@H]1[C@@H]2CO[C@@H](C2)[C@@H]1C/C=C\CCCC(=O)O [Compound U-44069, reference compound]
- Decrease in ability of lungs to expand easily ([3]; U-44069 alone 0.3 μg/kg i.v.): 28%
- Increase in resistance to movement of air into the lungs ([3]; U-44069 alone 0.3 μg/kg i.v.): 67%
- Decrease in ability of lungs to expand easily ([3]; U-44069 alone 1.0 μg/kg i.v.): 56%
- Increase in resistance to movement of air into the lungs ([3]; U-44069 alone 1.0 μg/kg i.v.): 333%
- Decrease in ability of lungs to expand easily ([3]; U-44069 alone 3.0 μg/kg i.v.): 70%
- Increase in resistance to movement of air into the lungs ([3]; U-44069 alone 3.0 μg/kg i.v.): 549%
